This is an account of results in patent publication US10294202B2, “Pyrrolidinones as herbicides” (FMC Corporation, priority 2013, dated 2019).

Where “and” joins values, the source holds several entries; their conditions need not be identical. Equal entries are not always repeated.

One experiment concerns giant foxtail (SETFA). The experiment is described as follows: Test H preemergence mixture test (Colby). Format: in vivo, Setaria faberii. The note with it: applied alone, 21 d, mean of three replicates, scale 0-100. The source says:
(§1) Colby's Equation was used to determine the herbicidal effects expected from the mixtures. Colby's Equation (Colby, S. R. “Calculating Synergistic and Antagonistic Responses of Herbicide Combinations,” Weeds, 15(1), pp 20-22 (1967)) calculates the expected additive effect of herbicidal mixtures and for two active ingredients is of the form: Pa+b=Pa+Pb−(PaPb/100)
(§2) where • Pa+b is the percentage effect of the mixture expected from additive contribution of the individual components: • Pa is the observed percentage effect of the first active ingredient at the same use rate as in the mixture, and • Pb is the observed percentage effect of the second active ingredient at the same use rate as in the mixture. In the following Tables, rates are shown in grams of active ingredient per hectare (g a.i./ha); “Obsd.” is the observed effect. “Exp.” is the expected effect calculated from Colby's Equation.
(§3) This test evaluated the effect of mixtures of compound 80 with several commercial herbicides on four plant species. Seeds of plant species selected from corn (ZEAMD, Zea mays), soybean (GLXMA, Glycine max), waterhemp (common waterhemp, AMATA, Amaranthus rudis), and giant foxtail (SETFA, Setaria faberii) were planted into a silt loam soil and treated preemergence with test chemicals formulated in a non-phytotoxic solvent mixture which included a surfactant and applied using a volume of 281 L/ha. Each treatment was replicated three times. Treated plants and controls were maintained in a greenhouse using supplemental lighting to maintain a photoperiod of about 16 h; daytime and nighttime temperatures were about 24-30° C. and 19-21° C., respectively. Nutrients were applied using a balanced fertilizer applied through the watering system. At 21 d after treatment, all species were compared to controls and visually evaluated. Plant response ratings were calculated as the means of the three replicates, are summarized in Tables H1 through H5, and are based on a scale of 0 to 100 where 0 is no effect and 100 is complete control. A dash (-) response means no test result. The Expected (Exp.) results were calculated using Colby's Equation as described for Test G above.

The test system of a further experiment is waterhemp (AMATA). In words: Test H preemergence mixture test (Colby). Type of experiment: in vivo, Amaranthus rudis. The note with it: applied alone, 21 d, mean of three replicates, scale 0-100.
Text: as §1, §2, §3

The test system of the next experiment is soybean (GLXMA). In words: Test H preemergence mixture test (Colby). Format: in vivo, Glycine max. The note with it: applied alone, 21 d, mean of three replicates, scale 0-100.
Text: as §1, §2, §3

Another experiment has as its system corn (ZEAMD). The experiment is described as follows: Test H preemergence mixture test (Colby). Format: in vivo, Zea mays. Particulars: applied alone, 21 d, mean of three replicates, scale 0-100.
Text: as §1, §2, §3

In another experiment the test system is barnyardgrass (ECHCG). The experiment is described as follows: Test G paddy mixture test (Colby). Format: in vivo, Echinochloa crus-galli. Particulars: applied alone, 20 g a.i./ha; 14 d; scale 0-100. As to the method:
(§4) Seeds of small-flower umbrella […], Cyperus difformis) and […], Heteranthera limosa) were sown on the soil surface in two separate quadrants of 11-cm (4-inch) tubs filled with steam pasteurized Tama soil. Simultaneously, plantings of […], Echinochloa crus-galli) and transplanted japonica rice (ORYSA, Oryza sativa) were established in separate “plug” flats. […] Herbicide application timing was targeted at the 2.0 to 2.5 leaf stage and the plants were treated with test chemicals formulated in a non-phytotoxic solvent. Treated plants and controls were maintained in a greenhouse for 14 d, after which time all species were compared to controls and visually evaluated. Plant response ratings are summarized in Tables G1 through G12, and are based on a scale of 0 to 100 where 0 is no effect and 100 is complete control. A dash (-) response means no test result. Colby's Equation was used to determine the herbicidal effects expected from the mixtures. […] “Exp.” is the expected effect calculated from Colby's Equation.

For experiment [1], the system named is small-flower umbrella sedge (CYPDI). The experiment is described as follows: Test G paddy mixture test (Colby). Type of experiment: in vivo, Cyperus difformis. Particulars: applied alone, 20 g a.i./ha; 14 d; scale 0-100. The method, then: as §4
The next experiment has as its system ducksalad (HETLI). The experiment is described as follows: Test G paddy mixture test (Colby). Type of experiment: in vivo, Heteranthera limosa. The note with it: applied alone, 20 g a.i./ha; 14 d; scale 0-100. As to the method: as §4

With `CCNc1nc(Cl)nc(NC(C)C)n1` [Atrazine], the “SETFA Obsd.” value with giant foxtail (SETFA) (62 g a.i./ha) worked out at 0; in the experiment on giant foxtail (SETFA) (125 g a.i./ha) it was 8. Also, the “AMATA Obsd.” value amounted to 33 with waterhemp (AMATA) (62 g a.i./ha) and 90 with waterhemp (AMATA) (125 g a.i./ha). For the same molecule, the “GLXMA Obsd.” value with soybean (GLXMA) (62 g a.i./ha) was 13; with soybean (GLXMA) (125 g a.i./ha), 48. Also, the “ZEAMD Obsd.” value in the experiment on corn (ZEAMD) (62 g a.i./ha) and in the experiment with corn (ZEAMD) (125 g a.i./ha) was 0 each time.
`COC(=O)c1ccccc1CS(=O)(=O)NC(=O)Nc1nc(OC)cc(OC)n1` [Bensulfuron-methyl]: the “ECHCG Obsd.” value in the experiment on barnyardgrass (ECHCG) was 65. The “CYPDI Obsd.” value in experiment [1] is 100 and 98. In the experiment with ducksalad (HETLI), the “HETLI Obsd.” value is recorded as 100.
As to `CCOC(=O)c1ccccc1S(=O)(=O)NC(=O)Nc1nc(Cl)cc(OC)n1` [Chlorimuron-ethyl], the “SETFA Obsd.” value in the experiment with giant foxtail (SETFA) (1 g a.i./ha) was found to be 0; in the experiment on giant foxtail (SETFA) (31 g a.i./ha), 47. In addition, the entries for the “AMATA Obsd.” value with waterhemp (AMATA) (1 g a.i./ha) and in the experiment with waterhemp (AMATA) (31 g a.i./ha) were 47 and 89, respectively. Also, the “GLXMA Obsd.” value is on record as 0 in the experiment on soybean (GLXMA) (1 g a.i./ha) and 22 in the experiment with soybean (GLXMA) (31 g a.i./ha). In addition, the figures for the “ZEAMD Obsd.” value with corn (ZEAMD) (1 g a.i./ha) and with corn (ZEAMD) (31 g a.i./ha) were 22 and 73, respectively.
